{
  "source": "patent US4060530A",
  "about": "“Clavulanic acid amides” (Beecham Group Limited, priority 1975, dated 1977)",
  "key": {"[1]": {"test_system": "Escherichia coli B 11", "test": "MIC / synergism, microtitre method (Example 42)", "type": "cell-based", "details": "B11, agent alone, inoculum final dilution 0.5 ×10^-2, 37° C overnight, read-out: Minimum Inhibitory Concentration"}, "[2]": {"test_system": "Salmonella typhimurium", "test": "MIC, microtitre method (Example 30)", "details": "Salmonella enterica, read-out: Minimum Inhibitory Concentration", "procedure": "(§1) The cultures were incubated overnight and the points of bacterial growth recorded next morning by observing the turbidity of the culture."}, "[3]": {"test_system": "Bacillus subtilis", "test": "MIC, microtitre method (Example 30)", "details": "read-out: Minimum Inhibitory Concentration", "procedure": "as §1"}, "[4]": {"test_system": "Staphylococcus aureus (Oxford H)", "test": "MIC, microtitre method (Example 30)", "details": "read-out: Minimum Inhibitory Concentration", "procedure": "as §1"}, "[5]": {"test_system": "Acinetobacter anitratus", "test": "MIC, microtitre method (Example 30)", "details": "Acinetobacter calcoaceticus, read-out: Minimum Inhibitory Concentration", "procedure": "as §1"}, "[6]": {"test_system": "Streptococcus pyogenes CN 10", "test": "MIC, microtitre method (Example 30)", "details": "CN10, read-out: Minimum Inhibitory Concentration", "procedure": "as §1"}, "[7]": {"test_system": "Escherichia coli NCTC 10481", "test": "MIC / synergism, microtitre method (Example 42)", "type": "cell-based", "details": "NCTC10481, agent alone, inoculum final dilution 0.5 ×10^-2, 37° C overnight, read-out: Minimum Inhibitory Concentration"}, "[8]": {"test": "Blood and tissue levels of clavulanic acid in female mice", "type": "in vivo"}, "[9]": {"test_system": "Staphylococcus aureus (Russell)", "test": "MIC / synergism, microtitre method (Example 42)", "type": "cell-based", "details": "Staphylococcus aureus; agent alone (Tables 5, 6); inoculum final dilution 0.5 ×10^-2, 37° C overnight; read-out: Minimum Inhibitory Concentration"}, "[10]": {"test_system": "Pseudomonas aeruginosa A", "test": "MIC, microtitre method (Example 30)", "details": "read-out: Minimum Inhibitory Concentration", "procedure": "as §1"}, "[11]": {"test_system": "Proteus mirabilis 899", "test": "microbe, parasite or virus in culture", "type": "cell-based", "details": "Proteus mirabilis, 899, read-out: Minimum Inhibitory Concentration"}, "[12]": {"test_system": "Klebsiella oxytocum", "test": "MIC, microtitre method (Example 30)", "details": "read-out: Minimum Inhibitory Concentration", "procedure": "as §1"}, "[13]": {"test_system": "Streptococcus faecalis", "test": "MIC, microtitre method (Example 30)", "details": "Enterococcus faecalis, read-out: Minimum Inhibitory Concentration", "procedure": "as §1"}, "[14]": {"test_system": "Klebsiella aerogenes", "test": "MIC, microtitre method (Example 30)", "details": "read-out: Minimum Inhibitory Concentration", "procedure": "as §1"}, "[15]": {"test_system": "Enterobacter cloacae", "test": "MIC / synergism, microtitre method (Example 42)", "type": "cell-based", "details": "agent alone, inoculum final dilution 0.5 ×10^-2, 37° C overnight, read-out: Minimum Inhibitory Concentration"}, "[16]": {"test_system": "Serratia marcescens", "test": "MIC, microtitre method (Example 30)", "details": "read-out: Minimum Inhibitory Concentration", "procedure": "as §1"}, "[17]": {"test_system": "Staph. aureus Russell", "test": "MIC, method of Example 30 with 1/100 dilution of overnight broth (Example 46)", "details": "Staphylococcus aureus", "procedure": "as §1"}, "[18]": {"test_system": "Staph. aureus Oxford", "test": "MIC, method of Example 30 with 1/100 dilution of overnight broth (Example 46)", "details": "Staphylococcus aureus", "procedure": "as §1"}, "[19]": {"test_system": "Staphylococcus aureus (Russell)", "test": "MIC, microtitre method (Example 30)", "details": "read-out: Minimum Inhibitory Concentration", "procedure": "as §1"}, "[20]": {"test_system": "Proteus mirabilis C977", "test": "MIC, microtitre method (Example 30)", "details": "C977, read-out: Minimum Inhibitory Concentration", "procedure": "as §1"}, "[21]": {"test_system": "Serratia marcescens", "test": "MIC / synergism, microtitre method (Example 42)", "type": "cell-based", "details": "agent alone, inoculum final dilution 0.5 ×10^-2, 37° C overnight, read-out: Minimum Inhibitory Concentration"}, "[22]": {"test_system": "Bacillus subtilis A", "test": "MIC, method of Example 30 with 1/100 dilution of overnight broth (Example 46)", "details": "Bacillus subtilis", "procedure": "as §1"}, "[23]": {"test_system": "Shigella sonnei", "test": "MIC, microtitre method (Example 30)", "details": "read-out: Minimum Inhibitory Concentration", "procedure": "as §1"}, "[24]": {"test_system": "Escherchia coli 10418", "test": "MIC, method of Example 30 with 1/100 dilution of overnight broth (Example 46)", "procedure": "as §1"}, "[25]": {"test_system": "Staphylococcus aureus", "test": "MIC / synergism, microtitre method (Example 42)", "type": "cell-based", "details": "Staphylococcus aureus; agent alone (Tables 5, 6); inoculum final dilution 0.5 ×10^-2, 37° C overnight; read-out: Minimum Inhibitory Concentration"}, "[26]": {"test_system": "Providentia stuartii", "test": "MIC, microtitre method (Example 30)", "details": "read-out: Minimum Inhibitory Concentration", "procedure": "as §1"}, "[27]": {"test_system": "Enterobacter cloacae", "test": "MIC, microtitre method (Example 30)", "details": "read-out: Minimum Inhibitory Concentration", "procedure": "as §1"}, "[28]": {"test_system": "Enterobacter aerogenes T 624", "test": "MIC, microtitre method (Example 30)", "details": "Klebsiella aerogenes, T624, read-out: Minimum Inhibitory Concentration", "procedure": "as §1"}, "[29]": {"test_system": "Escherichia coli NCTC 10418", "test": "MIC, microtitre method (Example 30)", "details": "NCTC10418, read-out: Minimum Inhibitory Concentration", "procedure": "as §1"}, "[30]": {"test_system": "Proteus vulgaris W090", "test": "MIC, microtitre method (Example 30)", "details": "W090, read-out: Minimum Inhibitory Concentration", "procedure": "as §1"}, "[31]": {"test_system": "Klebsiella sp 62", "test": "MIC / synergism, microtitre method (Example 42)", "type": "cell-based", "details": "agent alone, inoculum final dilution 0.5 ×10^-2, 37° C overnight, read-out: Minimum Inhibitory Concentration"}},
  "note": "Where a name gives a salt, the structure may show the parent alone.",
  "data": [
    {"smiles": "O=C(O)[C@H]1/C(=C/CO)O[C@@H]2CC(=O)N21", "note": "[clavulanic acid sodium salt, 3-(β-hydroxyethylidine)-7-oxo-4-oxa-1-azabicyclo [3,2,0]heptane-2-carboxylic acid sodium salt]", "values": [
      {"measurement": "MIC", "setting": "[1]", "result": 62, "unit": "µg/mL"},
      {"measurement": "MIC", "setting": "[2]", "result": 31, "unit": "µg/mL"},
      {"measurement": "MIC", "setting": "[3]", "result": 62, "unit": "µg/mL"},
      {"measurement": "MIC", "setting": "[4]", "result": 7.5, "unit": "µg/mL"},
      {"measurement": "MIC", "setting": "[5]", "result": 125, "unit": "µg/mL"},
      {"measurement": "MIC", "setting": "[6]", "result": 125, "unit": "µg/mL"},
      {"measurement": "MIC", "setting": "[7]", "result": 31, "unit": "µg/mL"},
      {"measurement": "levels of clavulanic acid after oral administration", "setting": "[8]; oral administration of 100 mg/kg", "result": "useful levels of clavulanic acid can be obtained"},
      {"measurement": "blood and tissue levels of clavulanic acid", "setting": "[8]; subcutaneous administration of 100 mg/kg", "result": "> 5", "unit": "µg/mL"},
      {"measurement": "MIC", "setting": "[9]", "result": 15, "unit": "µg/mL"},
      {"measurement": "MIC", "setting": "[10]", "result": 500, "unit": "µg/mL"},
      {"measurement": "MIC", "setting": "[11]", "result": "> 500", "unit": "µg/mL"},
      {"measurement": "MIC", "setting": "[12]", "result": 62, "unit": "µg/mL"},
      {"measurement": "MIC", "setting": "[13]", "result": "> 500", "unit": "µg/mL"},
      {"measurement": "MIC", "setting": "[14]", "result": "31 to 62", "unit": "µg/mL"},
      {"measurement": "MIC", "setting": "[15]", "result": 62, "unit": "µg/mL"},
      {"measurement": "MIC", "setting": "[16]", "result": 125, "unit": "µg/mL"},
      {"measurement": "MIC", "setting": "[17]", "result": 15, "unit": "µg/mL"},
      {"measurement": "MIC", "setting": "[18]", "result": 15, "unit": "µg/mL"},
      {"measurement": "MIC", "setting": "[19]", "result": 7.5, "unit": "µg/mL"},
      {"measurement": "MIC", "setting": "[20]", "result": 62, "unit": "µg/mL"},
      {"measurement": "MIC", "setting": "[21]", "result": 125, "unit": "µg/mL"},
      {"measurement": "MIC", "setting": "[22]", "result": 62, "unit": "µg/mL"},
      {"measurement": "MIC", "setting": "[23]", "result": 62, "unit": "µg/mL"},
      {"measurement": "MIC", "setting": "[24]", "result": 125, "unit": "µg/mL"},
      {"measurement": "MIC", "setting": "[25]", "result": 62, "unit": "µg/mL"},
      {"measurement": "MIC", "setting": "[26]", "result": 125, "unit": "µg/mL"},
      {"measurement": "MIC", "setting": "[27]", "result": 62, "unit": "µg/mL"},
      {"measurement": "MIC", "setting": "[28]", "result": 31, "unit": "µg/mL"},
      {"measurement": "MIC", "setting": "[29]", "result": 31, "unit": "µg/mL"},
      {"measurement": "MIC", "setting": "[30]", "result": 31, "unit": "µg/mL"},
      {"measurement": "MIC", "setting": "[31]", "result": 31, "unit": "µg/mL"}
    ]}
  ]
}
